# Test results reported in patent US5223526A, “Pyrazole carboxanilide fungicides and use” (Monsanto Company, priority 1992, dated 1993).
# Tests used:
# succinate dehydrogenase = biological target: T1, succinate dehydrogenase (Botrytis cinerea, UniProt A0A384J5E4+A0A384J8V8+A0A384JHJ5); test: Enzyme inhibition: succinate dehydrogenase activity in Botrytis cinerea mitochondria (DCPIP reduction); type: biochemical; conditions: concentration required to inhibit the rate of DCPIP reduction by 50%; Botrytis cinerea isolate Nick mitochondria; read-out: I50 (μM conc.)
# T1 construct: succinate-DCPIP reductase assay with KCN
# T1 sequence (A0A384J5E4 1-300): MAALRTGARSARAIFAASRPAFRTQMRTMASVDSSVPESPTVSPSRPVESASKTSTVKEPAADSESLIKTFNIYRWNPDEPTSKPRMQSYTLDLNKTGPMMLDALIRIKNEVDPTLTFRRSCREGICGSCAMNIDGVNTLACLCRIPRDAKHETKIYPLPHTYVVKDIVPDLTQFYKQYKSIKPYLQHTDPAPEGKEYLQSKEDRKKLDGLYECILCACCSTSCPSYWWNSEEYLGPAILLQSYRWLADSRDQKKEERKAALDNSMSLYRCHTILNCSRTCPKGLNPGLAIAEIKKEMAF
# T1 sequence (A0A384J8V8 1-189): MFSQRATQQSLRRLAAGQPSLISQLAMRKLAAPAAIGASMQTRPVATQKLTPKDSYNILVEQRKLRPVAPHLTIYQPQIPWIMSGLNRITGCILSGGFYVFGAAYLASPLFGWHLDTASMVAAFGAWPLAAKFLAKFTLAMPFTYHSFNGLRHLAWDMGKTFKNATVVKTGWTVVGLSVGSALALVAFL
# T1 sequence (A0A384JHJ5 1-192): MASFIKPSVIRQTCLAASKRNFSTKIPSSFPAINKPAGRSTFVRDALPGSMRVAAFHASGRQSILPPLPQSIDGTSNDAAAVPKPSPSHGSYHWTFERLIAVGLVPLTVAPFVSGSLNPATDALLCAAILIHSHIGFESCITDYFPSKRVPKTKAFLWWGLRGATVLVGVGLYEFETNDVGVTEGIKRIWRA
# T1 sequence (A0A384K456 1-647 partner): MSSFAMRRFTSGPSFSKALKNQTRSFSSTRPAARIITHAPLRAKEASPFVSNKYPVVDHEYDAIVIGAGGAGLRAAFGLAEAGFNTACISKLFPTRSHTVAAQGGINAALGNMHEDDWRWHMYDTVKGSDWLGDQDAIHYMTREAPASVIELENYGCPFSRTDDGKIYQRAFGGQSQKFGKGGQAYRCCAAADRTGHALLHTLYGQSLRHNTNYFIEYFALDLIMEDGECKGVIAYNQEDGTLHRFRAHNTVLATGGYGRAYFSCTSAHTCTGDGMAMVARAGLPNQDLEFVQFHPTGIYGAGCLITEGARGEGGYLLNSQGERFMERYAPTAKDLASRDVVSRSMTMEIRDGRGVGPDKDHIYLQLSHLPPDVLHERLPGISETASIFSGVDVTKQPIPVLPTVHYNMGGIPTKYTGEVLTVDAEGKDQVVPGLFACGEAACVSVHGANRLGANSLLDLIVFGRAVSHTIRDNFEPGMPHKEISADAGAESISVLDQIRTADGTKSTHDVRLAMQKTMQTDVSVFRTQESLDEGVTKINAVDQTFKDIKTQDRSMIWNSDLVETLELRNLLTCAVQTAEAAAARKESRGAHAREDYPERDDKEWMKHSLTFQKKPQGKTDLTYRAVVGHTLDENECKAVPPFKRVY
# Outline: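 Crude mitochondria from Botrytis cinerea isolate Nick mycelia, prepared by bead-beating and differential centrifugation, started reactions. SDH activity followed as DCPIP reduction at 600 nm in 50 mM K-phosphate pH 7.2 with 1 mM KCN, 45 μM DCPIP, 17 mM succinate, 1% acetone. I50 from semilog inhibition plots, corrected for succinate-free rates.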
# Botrytis cinerea [1] = test: Vine grey mold (grape berries); type: in vivo; conditions: average of six berries, 7-10 days; for pest or weed control at 50 ppm: grape berries treated with 50 ppm, read-out: % DISEASE CONTROL 50 ppm; for pest or weed control at 200 ppm: grape berries treated with 200 ppm, read-out: % DISEASE CONTROL 200 ppm
# Outline: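 Preventive berry test: compound at 50 or 200 ppm (acetone/water, 0.05% Tween 20) applied one day before inoculation with 10^6 spores/mL Botrytis conidia. After 7-10 days at 20 °C under 12 h light, infected surface area rated; disease control expressed as percent reduction from control mean; repeated-test values averaged.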
# Rhizoctonia solani = test: Rice sheath blight; type: in vivo; set-up: scale not given here; conditions: inoculated two days later, rated after 7 days, average of five plants; for Disease Control Rating at 0.02 mg/mL: foliage and soil sprayed with 0.02 mg/mL; for Disease Control Rating at 0.1 mg/mL: foliage and soil sprayed with 0.1 mg/mL; for Disease Control Rating at 0.5 mg/mL: foliage and soil sprayed with 0.5 mg/mL
# Outline: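 Rice plants 11–15 days old had foliage and soil sprayed with 0.5, 0.1 or 0.02 mg/mL Compound A in water/acetone/Tween 20, then kept in flooded trays. Two days later, rice-grain Rhizoctonia solani inoculum went to plant bases; disease control scored versus untreated after 7 days at 25 °C, high humidity, averaging five plants.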
# Botrytis cinerea [2] = test: Eggplant grey mold; type: in vivo; set-up: scale not given here; conditions: inoculated 24 h later, rated after 3-4 days; for Disease Control Rating at 20 ppm: eggplant sprayed with 20 ppm; for Disease Control Rating at 100 ppm: eggplant sprayed with 100 ppm; for Disease Control Rating at 500 ppm: eggplant sprayed with 500 ppm
# Outline: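 Protective test: compound formulations (2:3 acetone:water, 0.5% Tween 20; 500, 100 or 20 ppm) sprayed on 14-18-day-old plants, with spore inoculum (4×10^6 spore/mL) applied a day later. Disease control rated on Botrytis lesions after 3-4 days at 23 °C and 100% humidity.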
compound,measurement,setting,value
"Cn1cc(C(=O)Nc2ccccc2C2CC(C)(C)CC(C)(C)C2)c(C(F)F)n1 [Example 140, 1H-pyrazole-4-carboxamide, 3-(difluoromethyl)-1-methyl-N-[2-(3,3,5,5-tetramethylcyclohexyl)-phenyl]-]",IC50,succinate dehydrogenase,0.039 µM
same,pest or weed control at 50 ppm,Botrytis cinerea [1],16%
same,pest or weed control at 200 ppm,Botrytis cinerea [1],12%
same,Disease Control Rating at 0.02 mg/mL,Rhizoctonia solani,0
same,Disease Control Rating at 0.1 mg/mL,Rhizoctonia solani,2
same,Disease Control Rating at 0.5 mg/mL,Rhizoctonia solani,3
same,Disease Control Rating at 20 ppm,Botrytis cinerea [2],0
same,Disease Control Rating at 100 ppm,Botrytis cinerea [2],1
same,Disease Control Rating at 500 ppm,Botrytis cinerea [2],1
"Cn1cc(C(=O)Nc2ccccc2C2CC(C)(C)CC(C)(C)C2)c(C(F)(F)F)n1 [Example 139, 1H-pyrazole-4-carboxamide, 1-methyl-N-[2-(3,3,5,5-tetramethylcyclohexyl)phenyl]-3-(trifluoromethyl)-]",IC50,succinate dehydrogenase,0.032 µM
same,pest or weed control at 50 ppm,Botrytis cinerea [1],2%
same,pest or weed control at 200 ppm,Botrytis cinerea [1],1%
same,Disease Control Rating at 0.02 mg/mL,Rhizoctonia solani,2
same,Disease Control Rating at 0.1 mg/mL,Rhizoctonia solani,2
same,Disease Control Rating at 0.5 mg/mL,Rhizoctonia solani,3
same,Disease Control Rating at 20 ppm,Botrytis cinerea [2],0
same,Disease Control Rating at 100 ppm,Botrytis cinerea [2],0
same,Disease Control Rating at 500 ppm,Botrytis cinerea [2],0
"Cc1c(C(=O)Nc2ccccc2C2CCCCCC2)c(C(F)(F)F)nn1C [Example 99, 1H-pyrazole-4-carboxamide, N-(2-cycloheptylphenyl)-1,5-dimethyl-3-(trifluoromethyl)-]",IC50,succinate dehydrogenase,0.065 µM
same,pest or weed control at 50 ppm,Botrytis cinerea [1],27%
same,pest or weed control at 200 ppm,Botrytis cinerea [1],53%
same,Disease Control Rating at 0.02 mg/mL,Rhizoctonia solani,2
same,Disease Control Rating at 0.1 mg/mL,Rhizoctonia solani,3
same,Disease Control Rating at 0.5 mg/mL,Rhizoctonia solani,3
same,Disease Control Rating at 500 ppm,Botrytis cinerea [2],1
"CCC1CC=C(c2ccccc2NC(=O)c2cn(C)nc2C(F)F)CC1 (stereo not shown) [Example 125, 1H-pyrazole-4-carboxamide, 3-(difluoromethyl)-N-[2-(4-ethyl-1-cyclohexen-1-yl)phenyl]-1-methyl-]",IC50,succinate dehydrogenase,0.005 µM
same,pest or weed control at 50 ppm,Botrytis cinerea [1],88%
same,pest or weed control at 200 ppm,Botrytis cinerea [1],93%
same,Disease Control Rating at 0.02 mg/mL,Rhizoctonia solani,2
same,Disease Control Rating at 0.1 mg/mL,Rhizoctonia solani,2
same,Disease Control Rating at 0.5 mg/mL,Rhizoctonia solani,3
same,Disease Control Rating at 20 ppm,Botrytis cinerea [2],2
same,Disease Control Rating at 100 ppm,Botrytis cinerea [2],1
same,Disease Control Rating at 500 ppm,Botrytis cinerea [2],2
"Cn1cc(C(=O)Nc2ccccc2OC2CCCCC2)c(C(F)F)n1 [Example 22, 1H-pyrazole-4-carboxamide, N-[2-(cyclohexyloxy)phenyl]-3-(difluoromethyl)-1-methyl-]",IC50,succinate dehydrogenase,0.0071 µM
same,pest or weed control at 50 ppm,Botrytis cinerea [1],24%
same,pest or weed control at 200 ppm,Botrytis cinerea [1],22%
same,Disease Control Rating at 0.5 mg/mL,Rhizoctonia solani,0
same,Disease Control Rating at 500 ppm,Botrytis cinerea [2],0
"Cc1c(C(=O)Nc2ccccc2C2CCCC2)c(C(F)(F)F)nn1C [Example 101, 1H-pyrazole-4-carboxamide, N-(2-cyclopentylphenyl)-1,5-dimethyl-3-(trifluoromethyl)-]",IC50,succinate dehydrogenase,1.4 µM
same,pest or weed control at 50 ppm,Botrytis cinerea [1],10%
same,pest or weed control at 200 ppm,Botrytis cinerea [1],16%
same,Disease Control Rating at 0.02 mg/mL,Rhizoctonia solani,0
same,Disease Control Rating at 0.1 mg/mL,Rhizoctonia solani,1
same,Disease Control Rating at 0.5 mg/mL,Rhizoctonia solani,3
same,Disease Control Rating at 500 ppm,Botrytis cinerea [2],0
"CSc1nn(C)cc1C(=O)Nc1ccccc1C1CCCCC1 [Example 39, 1H-pyrazole-4-carboxamide, N-(2-cyclohexylphenyl)-1-methyl-3-(methylthio)-]",IC50,succinate dehydrogenase,0.36 µM
same,pest or weed control at 50 ppm,Botrytis cinerea [1],50%
same,pest or weed control at 200 ppm,Botrytis cinerea [1],55%
same,Disease Control Rating at 0.5 mg/mL,Rhizoctonia solani,0
same,Disease Control Rating at 500 ppm,Botrytis cinerea [2],1
"Cn1cc(C(=O)Nc2ccccc2OC2(C)CCCC2)c(C(F)(F)F)n1 [Example 36, 1H-pyrazole-4-carboxamide, 1-methyl-N-[2-(1-methylcyclopentyloxy)phenyl]-3-(trifluoromethyl)-]",IC50,succinate dehydrogenase,0.021 µM
same,pest or weed control at 50 ppm,Botrytis cinerea [1],14%
same,pest or weed control at 200 ppm,Botrytis cinerea [1],38%
same,Disease Control Rating at 0.5 mg/mL,Rhizoctonia solani,0
same,Disease Control Rating at 500 ppm,Botrytis cinerea [2],0
"Cn1cc(C(=O)Nc2ccccc2C2=CCCCCC2)c(C(F)(F)F)n1 [Example 112, 1H-pyrazole-4-carboxamide, N-[2-(1-cyclohepten-1-yl)phenyl]-1-methyl-3-(trifluoromethyl)-]",IC50,succinate dehydrogenase,0.0021 µM
same,pest or weed control at 50 ppm,Botrytis cinerea [1],88%
same,pest or weed control at 200 ppm,Botrytis cinerea [1],95%
same,Disease Control Rating at 0.5 mg/mL,Rhizoctonia solani,0
same,Disease Control Rating at 20 ppm,Botrytis cinerea [2],2
same,Disease Control Rating at 100 ppm,Botrytis cinerea [2],3
same,Disease Control Rating at 500 ppm,Botrytis cinerea [2],3
"Cn1nc(C(F)(F)F)c(C(=O)Nc2ccccc2C2CCCCCC2)c1F [Example 86, 1H-pyrazole-4-carboxamide, N-(2-cycloheptylphenyl)-5-fluoro-1-methyl-3-(trifluoromethyl)-]",IC50,succinate dehydrogenase,0.0063 µM
same,pest or weed control at 50 ppm,Botrytis cinerea [1],66%
same,pest or weed control at 200 ppm,Botrytis cinerea [1],82%
same,Disease Control Rating at 0.02 mg/mL,Rhizoctonia solani,3
same,Disease Control Rating at 0.1 mg/mL,Rhizoctonia solani,3
same,Disease Control Rating at 0.5 mg/mL,Rhizoctonia solani,3
same,Disease Control Rating at 500 ppm,Botrytis cinerea [2],0
"Cn1cc(C(=O)Nc2ccccc2[C@@H]2C[C@H]3CC[C@@H]2C3)c(Cl)n1 (relative stereo) [Example 52, 1H-pyrazole-4-carboxamide, N-(2-bicyclo[2.2.1]hept-2-ylphenyl)-3-chloro-1-methyl-, exo-]",IC50,succinate dehydrogenase,0.049 µM
same,pest or weed control at 50 ppm,Botrytis cinerea [1],19%
same,pest or weed control at 200 ppm,Botrytis cinerea [1],30%
same,Disease Control Rating at 0.02 mg/mL,Rhizoctonia solani,0
same,Disease Control Rating at 0.1 mg/mL,Rhizoctonia solani,2
same,Disease Control Rating at 0.5 mg/mL,Rhizoctonia solani,2
same,Disease Control Rating at 500 ppm,Botrytis cinerea [2],0
"Cc1nn(C)c(Cl)c1C(=O)Nc1ccccc1[C@@H]1C[C@H]2CC[C@@H]1C2 (relative stereo) [Example 106, 1H-pyrazole-4-carboxamide, N-(2-bicyclo[2.2.1]hept-2-ylphenyl)-5-chloro-1,3-dimethyl-, exo-]",IC50,succinate dehydrogenase,0.094 µM
same,pest or weed control at 50 ppm,Botrytis cinerea [1],9%
same,pest or weed control at 200 ppm,Botrytis cinerea [1],3%
same,Disease Control Rating at 0.02 mg/mL,Rhizoctonia solani,2
same,Disease Control Rating at 0.1 mg/mL,Rhizoctonia solani,3
same,Disease Control Rating at 0.5 mg/mL,Rhizoctonia solani,3
same,Disease Control Rating at 500 ppm,Botrytis cinerea [2],0
Cn1cc(C(=O)Nc2ccccc2O[C@@H]2C[C@H]3CC[C@@H]2C3)c(C(F)(F)F)n1 (relative stereo) [Example 81],IC50,succinate dehydrogenase,0.38 µM
same,pest or weed control at 50 ppm,Botrytis cinerea [1],0%
same,pest or weed control at 200 ppm,Botrytis cinerea [1],7%
same,Disease Control Rating at 0.02 mg/mL,Rhizoctonia solani,3
same,Disease Control Rating at 0.1 mg/mL,Rhizoctonia solani,3
same,Disease Control Rating at 0.5 mg/mL,Rhizoctonia solani,3
same,Disease Control Rating at 500 ppm,Botrytis cinerea [2],0
"Cn1cc(C(=O)Nc2ccccc2C=C2CCCC2)c(C(F)F)n1 [Example 118, 1H-pyrazole-4-carboxamide, N-[2-(cyclopentylidenemethyl)phenyl]3-(difluoromethyl)-1-methyl-]",IC50,succinate dehydrogenase,0.029 µM
same,pest or weed control at 50 ppm,Botrytis cinerea [1],37%
same,pest or weed control at 200 ppm,Botrytis cinerea [1],87%
same,Disease Control Rating at 0.5 mg/mL,Rhizoctonia solani,1
same,Disease Control Rating at 500 ppm,Botrytis cinerea [2],0
"Cn1cc(C(=O)Nc2ccccc2C2=CC(C)(C)CC(C)(C)C2)c(C(F)F)n1 [Example 121, 1H-pyrazole-4-carboxamide, 3-(difluoromethyl)-1-methyl-N-[2-(3,3,5,5-tetramethyl-1-cyclohexen-1-yl)phenyl]-]",IC50,succinate dehydrogenase,0.0069 µM
same,pest or weed control at 50 ppm,Botrytis cinerea [1],33%
same,pest or weed control at 200 ppm,Botrytis cinerea [1],64%
same,Disease Control Rating at 0.02 mg/mL,Rhizoctonia solani,1
same,Disease Control Rating at 0.1 mg/mL,Rhizoctonia solani,3
same,Disease Control Rating at 0.5 mg/mL,Rhizoctonia solani,3
same,Disease Control Rating at 20 ppm,Botrytis cinerea [2],0
same,Disease Control Rating at 100 ppm,Botrytis cinerea [2],0
same,Disease Control Rating at 500 ppm,Botrytis cinerea [2],1
"Cn1cc(C(=O)Nc2ccccc2C2=CCCCC2)c(C(F)(F)F)n1 [Example 110, 1H-pyrazole-4-carboxamide, N-[2-(1-cyclohexen-1-yl)phenyl]-1-methyl-3-(trifluoromethyl)-]",IC50,succinate dehydrogenase,0.019 µM
same,pest or weed control at 50 ppm,Botrytis cinerea [1],97%
same,pest or weed control at 200 ppm,Botrytis cinerea [1],100%
same,Disease Control Rating at 0.02 mg/mL,Rhizoctonia solani,0
same,Disease Control Rating at 0.1 mg/mL,Rhizoctonia solani,0
same,Disease Control Rating at 0.5 mg/mL,Rhizoctonia solani,3
same,Disease Control Rating at 20 ppm,Botrytis cinerea [2],1
same,Disease Control Rating at 100 ppm,Botrytis cinerea [2],2
same,Disease Control Rating at 500 ppm,Botrytis cinerea [2],2
"Cn1cc(C(=S)Nc2ccccc2[C@@H]2C[C@H]3CC[C@@H]2C3)c(C(F)F)n1 (relative stereo) [Example 102, 1H-pyrazole-4-carbothioamide, N-(2-bicyclo[2.2.1]hept-2-ylphenyl)-3-(difluoromethyl)-1-methyl-, exo-]",IC50,succinate dehydrogenase,16 µM
same,pest or weed control at 50 ppm,Botrytis cinerea [1],88%
same,pest or weed control at 200 ppm,Botrytis cinerea [1],83%
same,Disease Control Rating at 0.02 mg/mL,Rhizoctonia solani,3
same,Disease Control Rating at 0.1 mg/mL,Rhizoctonia solani,3
same,Disease Control Rating at 0.5 mg/mL,Rhizoctonia solani,3
same,Disease Control Rating at 500 ppm,Botrytis cinerea [2],1
